# Laboratory results taken from patent US20240300905A1, “Quinazoline Compounds and Uses” (Prosetta Biosciences, Inc., priority 2023, published 2024).
# System: Hennes-20 cells
# Assay: Hennes-20 oncology screen (low vs high plating density, alamar Blue)
# Assay type: cell-based
# Settings: 72 h, Hennes-20 cells, 72 hours compound incubation, alamar Blue; read-out: EC50
# Experimental: All compounds mentioned as active were tested in Hennes. Select hits from the Hennes screen were sent for additional anti-cancer testing.
# To screen compounds for oncology activity Hennes-20 cells were plated at low (500 cells/well) versus high (15,000 cells/well) densities and treated with DMSO (vehicle) or dose-titration of compounds. The rationale for this screen is that an intrinsically toxic compound should kill cells regardless of density, including in Hennes-20 cells. However, a compound that selectively triggers the arrest of proliferation will inhibit cell growth when plated at a low density will appear cytotoxic due to inhibition of cell growth when plated at a low density but will appear non-toxic to cells plated at a high density where the cells are approaching confluence and the readout detected by a cell viability assay is already close to the maximum.
# To conduct the Hennes-20 screen, two 96 well plates were seeded with Hennes 20 cells in parallel where one was plated at a density of 500 cells/well and the other was plated at a density of 15,000 cells/well. 90 uL of minimum essential media was added to each well and plates were placed in a 37 degrees Celsius incubator for 24 hours. The next day, 10 ul of media containing dilutions of compound in DMSO were added to each plate. Six wells on each plate received 10 ul of media containing only DMSO. Each well was gently mixed 5 times with a 100 ul pipette. Plates were incubated at 37 degrees Celsius for 72 hours then 10 uL of alamar Blue was added to each well. Wells were mixed 5 times then incubated at 37 degrees Celsius for […]. Plates were then read at 530/590.
# The rationale for the screen is as follows: Hennes-20 cells lack endogenous apoptosis. Cells plated at low density will proliferate and approach confluence in 72 hrs. A drug that arrests proliferation may have its proliferation blocking effect masked by the triggering of endogenous apoptosis. However, in the Hennes line, lacking endogenous apoptosis, such an arrest is manifest as a dose-dependent maintenance at low cell density. Since the high-density cells are plated close to confluence, the difference between Alamar Blue cell survival readings after 72 hrs reflects the ability of the drug to block proliferation in the low density-plated cells. In the high density-plated cells any diminution of Alamar Blue readout vs vehicle control is due to intrinsic toxicity, not proliferation arrest, since cells were already at confluence. Thus, a compound that appears toxic (low Alamar Blue readings after 72 hrs) on the low-density plate, but which appears non-toxic (high Alamar Blue readings after 72 hrs) on the high-density plate, must be arresting proliferation, since intrinsic compound toxicity should be observed at both low and high cell densities, not selectively on the low-density plate.
row,SMILES,EC50
1,CC(C)CNc1ncnc2cc(N3CCN(c4ccc5c(NCCc6ccccc6)ncnc5c4)CC3)ccc12 [Compound 64],2500 nM
2,CCN(CCN(C)c1ccc2c(NCC(C)(C)C)ncnc2c1)c1ccc2c(NCCC(C)C)ncnc2c1 [Compound 94],< 2500 nM
3,CC(C)CCNc1ncnc2cc(N3CCN(c4ccc5c(NCC(C)(C)C)ncnc5c4)CC3)ccc12 [Compound 24],< 500 nM
4,CC(C)CCNc1ncnc2cc(N3CCN(c4ccc5c(NC(C)C)ncnc5c4)CC3)ccc12 [Compound 29],< 500 nM
5,CC(C)(C)CNc1ncnc2cc(N3CCN(c4ccc5c(NCCC6CCNCC6)ncnc5c4)CC3)ccc12 [Compound 59],> 12500 nM
6,CCCCNc1ncnc2cc(N(CC)CCN(CC)c3ccc4c(NCCC(C)C)ncnc4c3)ccc12 [Compound 87],2500 nM
7,CCN(CCN(C)c1ccc2c(NCCC(C)C)ncnc2c1)c1ccc2c(NCCC(C)C)ncnc2c1 [Compound 96],< 2500 nM
8,CC(C)CNc1ncnc2cc(N3CCN(c4ccc5c(NCCc6ccncc6)ncnc5c4)CC3)ccc12 [Compound 65],2500 nM
9,CC(C)CCN(C)c1ncnc2cc(N3CCN(c4ccc5c(NCCc6ccncc6)ncnc5c4)CC3)ccc12 [Compound 61],2500 nM
10,CC(C)CCNc1ncnc2cc(N3CCN(c4ccc5c(NCCc6ccncc6)ncnc5c4)CC3)ccc12 [Compound 85],< 12500 nM
11,CCCCNc1ncnc2cc(N3CCN(c4ccc5c(NCCN6CCN(C)CC6)ncnc5c4)CC3)ccc12 [Compound 71],> 2500 nM
12,CC(C)(C)CNc1ncnc2cc(N3CCN(c4ccc5c(NCCc6cccnc6)ncnc5c4)CC3)ccc12 [Compound 76],2500 nM
13,CCCCNc1ncnc2cc(N(C)CCN(C)c3ccc4c(NCCCC)ncnc4c3)ccc12 [Compound 89],500 nM
14,CCCCNc1ncnc2cc(N(C)CCN(CC)c3ccc4c(NCCCC)ncnc4c3)ccc12 [Compound 93],< 2500 nM
15,CC(C)CCNc1ncnc2cc(N(C)CCCN(C)c3ccc4c(NCCC(C)C)ncnc4c3)ccc12 [Compound 99],< 12500 nM
16,CC(C)CCNc1ncnc2cc(N3CCN(c4ccc5c(NCCc6nccs6)ncnc5c4)CC3)ccc12 [Compound 81],500 nM
17,CC(C)CCN(C)c1ncnc2cc(N3CCN(c4ccc5c(NCCc6ccccc6)ncnc5c4)CC3)ccc12 [Compound 60],2500 nM
18,CC(C)CCNc1ncnc2cc(N3CCN(c4ccc5c(NCCc6cccnc6)ncnc5c4)CC3)ccc12 [Compound 83],< 2500 nM
19,CCCCNc1ncnc2cc(N3CCN(c4ccc5c(NCCc6cccnc6)ncnc5c4)CC3)ccc12 [Compound 72],2500 nM
20,CC(C)CCNc1ncnc2cc(N3CCN(c4ccc5c(NCCc6ccccn6)ncnc5c4)CC3)ccc12 [Compound 84],500 nM
21,CCCCNc1ncnc2cc(N(C)CCN(C)c3ccc4c(NCCC(C)C)ncnc4c3)ccc12 [Compound 91],2500 nM
22,CCN(CCN(CC)c1ccc2c(NCC(C)(C)C)ncnc2c1)c1ccc2c(NCCC(C)C)ncnc2c1 [Compound 86],< 2500 nM
23,CCCCNc1ncnc2cc(N(C)CCN(CC)c3ccc4c(NCCC(C)C)ncnc4c3)ccc12 [Compound 95],< 2500 nM
24,CC(C)(C)CNc1ncnc2cc(N3CCN(c4ccc5c(N6CCC(C)(C)CC6)ncnc5c4)CC3)ccc12 [Compound 74],500 nM
25,CC(C)(C)CNc1ncnc2cc(N3CCN(c4ccc5c(NCCc6ccncc6)ncnc5c4)CC3)ccc12 [Compound 77],< 12500 nM
26,CCCCNc1ncnc2cc(N3CCN(c4ccc5c(NCCCC)ncnc5c4)C(C)C3)ccc12 (stereo not drawn) [Compound 53],500 nM
27,CCCCNc1ncnc2cc(N3CCN(c4ccc5c(NCCc6ccccc6)ncnc5c4)CC3)ccc12 [Compound 56],12500 nM
28,CC(C)CCNc1ncnc2cc(N(C)CCN(C)c3ccc4c(NCC(C)(C)C)ncnc4c3)ccc12 [Compound 90],2500 nM
29,CCCCNc1ncnc2cc(N3CCN(c4ccc5c(NCCc6ccccn6)ncnc5c4)CC3)ccc12 [Compound 69],500 nM

# Same assay, conditions: Hennes-20 cells, 72 hours compound incubation, alamar Blue; read-out: EC50
row,SMILES,EC50
1,CC(C)CCNc1ncnc2cc(N3CCN(c4ccc5c(N(C)CC(C)C)ncnc5c4)CC3)ccc12 [Compound 7],< 500 nM
